Legend:
TDO [1] = biological target: T1, TDO (Homo sapiens, UniProt P48775); assay: hTDO biochemical coupled assay; settings: 330 μM L-tryptophan; for IC50: 17 minutes, room temperature, read-out: hTDO biochemical assay pIC50 (converted)
Source text: Two different assays were employed: 1. a cell-based assay for detecting the effect of test compounds on kynurenine production in two different cancer cell types. This assay utilised cancer cells which expressed either TDO or IDO and as such was used as a means of testing compound activity at these two enzymes in a cell-based context. 2. a TDO and IDO biochemical coupled assay which utilised recombinantly produced and purified TDO and IDO enzymes in combination with the enzyme formamidase. This coupled enzyme system allowed conversion of N-formylkynurenine produced by TDO or IDO activity to kynurenine which was then quantified by fluorescence following addition of Erhlich's Reagent The protocols for these are set out below.

IDO [2] = biological target: T2, IDO (Homo sapiens, UniProt P14902); assay: hIDO biochemical coupled assay; settings: 45 μM L-tryptophan, read-out: hIDO biochemical assay pIC50 (converted)
TDO [3] = biological target: T1, TDO; assay: A172 kynurenine cell-based assay; parameters: This assay utilised cancer cells which expressed either TDO or IDO; endogenous in cells; host or cells: A172 (human glioblastoma); settings: A172 human glioblastoma cells, 48 hours, read-out: A172 Kynurenine cell based assay pIC50 (converted)
Procedure, shortened: (§1)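 First, A172 or SKOV3 cells were seeded in phenol red-free RPMI, 10% FCS, 2 mM L-glutamine, 500 μM L-tryptophan; SKOV3 received 500 ng/ml IFN-γ for IDO induction. Next came compound exposure, 48 hours, 37° C. Finally, cells were spun out, supernatant treated with Erhlich's reagent, absorbance read at 490 nm.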

IDO [4] = biological target: T2, IDO; assay: SKOV3 kynurenine cell-based assay (IDO induced by IFN-γ); parameters: IDO expression was induced in the SKOV3 cells by the addition of 500 ng/ml IFN-γ; endogenous in cells; host or cells: SKOV3 (human ovarian adenocarcinoma), induced with IFN-γ; settings: 48 hours, read-out: SKOV3 Kynurenine cell based assay pIC50 (converted)
Procedure, shortened: as §1

[5] = SKOV3 human ovarian adenocarcinoma cells, 500 ng/ml IFN-γ, 500 μM L-tryptophan

T1 sequence (P48775 whole entry): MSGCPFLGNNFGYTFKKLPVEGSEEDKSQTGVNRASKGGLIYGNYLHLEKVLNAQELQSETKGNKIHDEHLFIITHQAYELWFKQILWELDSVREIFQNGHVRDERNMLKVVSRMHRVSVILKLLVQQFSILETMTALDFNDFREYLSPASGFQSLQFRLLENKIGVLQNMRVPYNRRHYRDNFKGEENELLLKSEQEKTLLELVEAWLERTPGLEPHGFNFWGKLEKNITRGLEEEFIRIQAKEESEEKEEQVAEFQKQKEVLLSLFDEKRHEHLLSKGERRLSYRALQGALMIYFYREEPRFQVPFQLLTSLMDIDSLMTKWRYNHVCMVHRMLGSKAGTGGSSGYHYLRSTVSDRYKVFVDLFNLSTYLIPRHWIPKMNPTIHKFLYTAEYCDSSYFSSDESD
T2 sequence (P14902 whole entry): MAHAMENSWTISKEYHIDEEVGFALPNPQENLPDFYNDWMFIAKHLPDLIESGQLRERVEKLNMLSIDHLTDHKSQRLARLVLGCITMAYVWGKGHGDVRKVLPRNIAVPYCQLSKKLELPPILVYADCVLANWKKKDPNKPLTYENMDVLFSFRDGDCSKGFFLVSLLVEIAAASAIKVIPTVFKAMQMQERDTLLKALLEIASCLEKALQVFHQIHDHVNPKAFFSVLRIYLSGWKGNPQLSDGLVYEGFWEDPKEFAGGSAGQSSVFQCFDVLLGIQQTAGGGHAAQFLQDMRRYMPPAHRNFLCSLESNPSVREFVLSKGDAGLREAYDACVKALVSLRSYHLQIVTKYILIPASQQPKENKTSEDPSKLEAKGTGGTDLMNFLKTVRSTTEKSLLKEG

CS(=O)(=O)N1CCN(c2cc(Cl)cc3[nH]ncc23)C2CCCCC21 (racemic) [Compound 341]
IC50 (TDO [1]): > 100 µM
IC50 (IDO [2]; 17 minutes, room temperature): > 100 µM
IC50 (TDO [3]; 500 μM L-tryptophan): 3.24 to 31.6 µM
IC50 (IDO [4]; [5]): 32.4 to 100 µM

CS(=O)(=O)N1CCN(c2cc(Cl)cc3[nH]ncc23)C2CCCCC21 (single isomer, unassigned) [Compound 385]
IC50 (TDO [1]): > 100 µM
IC50 (IDO [2]; 17 minutes, room temperature): > 100 µM
IC50 (TDO [3]; 500 μM L-tryptophan): 32.4 to 100 µM
IC50 (IDO [4]; [5]): 32.4 to 100 µM

CS(=O)(=O)N1CCN(c2cc(Cl)cc3[nH]ncc23)C2CCCCC21 (single isomer, unassigned) [Compound 386]
IC50 (TDO [1]): 3.24 to 31.6 µM
IC50 (TDO [3]; 500 μM L-tryptophan): 3.24 to 31.6 µM
IC50 (IDO [4]; [5]): 3.24 to 31.6 µM

CS(=O)(=O)N1CCN(c2cc(C(F)(F)F)cc3[nH]ncc23)C2CCCCC21 (single isomer, unassigned) [Compound 415]
IC50 (TDO [1]): 3.24 to 31.6 µM
IC50 (IDO [2]; 17 minutes, room temperature): > 100 µM
IC50 (TDO [3]; 500 μM L-tryptophan): 3.24 to 31.6 µM
IC50 (IDO [4]; [5]): > 100 µM

O=S(=O)(Nc1cccc2[nH]ncc12)c1ccccc1 [Compound 2]
IC50 (TDO [1]): 32.4 to 100 µM
IC50 (IDO [2]; 17 minutes, room temperature): > 100 µM

Cc1noc(C)c1S(=O)(=O)Nc1cccc2[nH]ncc12 [Compound 3]
IC50 (TDO [1]): 3.24 to 31.6 µM
IC50 (IDO [2]; 17 minutes, room temperature): > 100 µM

CC(C)(C)CC(=O)Nc1cccc2[nH]ncc12 [Compound 4, N-(1H-indazol-4-yl)-3,3-dimethylbutanamide]
IC50 (TDO [1]): < 3.16 µM
IC50 (IDO [2]; 17 minutes, room temperature): > 100 µM
IC50 (TDO [3]; 500 μM L-tryptophan): 32.4 to 100 µM
IC50 (IDO [4]; [5]): > 100 µM

O=C(Nc1cccc2[nH]ncc12)C1CCOCC1 [Compound 5]
IC50 (TDO [1]): 32.4 to 100 µM
IC50 (IDO [2]; 17 minutes, room temperature): > 100 µM

CN(C)S(=O)(=O)Nc1cccc2[nH]ncc12 [Compound 7]
IC50 (TDO [1]): 32.4 to 100 µM
IC50 (IDO [2]; 17 minutes, room temperature): > 100 µM

CC(C)CS(=O)(=O)Nc1cccc2[nH]ncc12 [Compound 8]
IC50 (TDO [1]): 3.24 to 31.6 µM
IC50 (IDO [2]; 17 minutes, room temperature): > 100 µM

O=C(Nc1cccc2[nH]ncc12)c1ccccc1 [Compound 9]
IC50 (TDO [1]): 32.4 to 100 µM
IC50 (IDO [2]; 17 minutes, room temperature): > 100 µM

CS(=O)(=O)N1CCN(c2cccc3[nH]ncc23)CC1 [Compound 10]
IC50 (TDO [1]): 3.24 to 31.6 µM
IC50 (IDO [2]; 17 minutes, room temperature): > 100 µM
IC50 (TDO [3]; 500 μM L-tryptophan): 3.24 to 31.6 µM
IC50 (IDO [4]; [5]): 32.4 to 100 µM

CC(=O)N1CCN(c2cccc3[nH]ncc23)CC1 [Compound 11]
IC50 (TDO [1]): 32.4 to 100 µM
IC50 (IDO [2]; 17 minutes, room temperature): > 100 µM
IC50 (TDO [3]; 500 μM L-tryptophan): 3.24 to 31.6 µM
IC50 (IDO [4]; [5]): 32.4 to 100 µM

CS(=O)(=O)N1CCC(c2cccc3[nH]ncc23)CC1 [Compound 12]
IC50 (TDO [1]): 3.24 to 31.6 µM
IC50 (IDO [2]; 17 minutes, room temperature): > 100 µM
IC50 (TDO [3]; 500 μM L-tryptophan): 3.24 to 31.6 µM
IC50 (IDO [4]; [5]): > 100 µM

CC(=O)N1CCC(c2cccc3[nH]ncc23)CC1 [Compound 14]
IC50 (TDO [1]): 32.4 to 100 µM
IC50 (IDO [2]; 17 minutes, room temperature): > 100 µM
IC50 (TDO [3]; 500 μM L-tryptophan): 3.24 to 31.6 µM
IC50 (IDO [4]; [5]): 32.4 to 100 µM

O=S(=O)(c1ccccc1)N1CCN(c2cccc3[nH]ncc23)CC1 [Compound 15]
IC50 (TDO [1]): 32.4 to 100 µM
IC50 (IDO [2]; 17 minutes, room temperature): > 100 µM
IC50 (TDO [3]; 500 μM L-tryptophan): 3.24 to 31.6 µM
IC50 (IDO [4]; [5]): 32.4 to 100 µM

O=S(=O)(C1CCCC1)N1CCN(c2cccc3[nH]ncc23)CC1 [Compound 17]
IC50 (TDO [1]): 3.24 to 31.6 µM
IC50 (IDO [2]; 17 minutes, room temperature): > 100 µM
IC50 (TDO [3]; 500 μM L-tryptophan): 3.24 to 31.6 µM
IC50 (IDO [4]; [5]): 32.4 to 100 µM

O=S(=O)(C1CC1)N1CCN(c2cccc3[nH]ncc23)CC1 [Compound 19]
IC50 (TDO [1]): 3.24 to 31.6 µM
IC50 (IDO [2]; 17 minutes, room temperature): > 100 µM
IC50 (TDO [3]; 500 μM L-tryptophan): 3.24 to 31.6 µM
IC50 (IDO [4]; [5]): 32.4 to 100 µM

CN(C)S(=O)(=O)N1CCN(c2cccc3[nH]ncc23)CC1 [Compound 21]
IC50 (TDO [1]): 3.24 to 31.6 µM
IC50 (IDO [2]; 17 minutes, room temperature): > 100 µM
IC50 (TDO [3]; 500 μM L-tryptophan): 3.24 to 31.6 µM
IC50 (IDO [4]; [5]): 32.4 to 100 µM

CC(C)S(=O)(=O)N1CCN(c2cccc3[nH]ncc23)CC1 [Compound 22]
IC50 (TDO [1]): 3.24 to 31.6 µM
IC50 (IDO [2]; 17 minutes, room temperature): > 100 µM
IC50 (TDO [3]; 500 μM L-tryptophan): 3.24 to 31.6 µM
IC50 (IDO [4]; [5]): 32.4 to 100 µM

CC(=O)N1CCN(c2cccc3[nH]ncc23)CC1(C)C [Compound 25]
IC50 (TDO [1]): < 3.16 µM
IC50 (IDO [2]; 17 minutes, room temperature): 32.4 to 100 µM
IC50 (TDO [3]; 500 μM L-tryptophan): < 3.16 µM
IC50 (IDO [4]; [5]): 3.24 to 31.6 µM

CC1(C)CN(c2cccc3[nH]ncc23)CCN1S(C)(=O)=O [Compound 26]
IC50 (TDO [1]): < 3.16 µM
IC50 (IDO [2]; 17 minutes, room temperature): 3.24 to 31.6 µM
IC50 (TDO [3]; 500 μM L-tryptophan): < 3.16 µM
IC50 (IDO [4]; [5]): 3.24 to 31.6 µM

CS(=O)(=O)N1CCN(c2cc(Cl)cc3[nH]ncc23)CC1 [Compound 28, 6-chloro-4-(4-(methylsulfonyl)piperazin-1-yl)-1H-indazole]
hTDO biochemical assay pIC50 (TDO [1]): 6.34
IC50 (TDO [1]): < 3.16 µM
IC50 (IDO [2]; 17 minutes, room temperature): 3.24 to 31.6 µM
IC50 (IDO [2]): 22.4 µM
IC50 (TDO [3]; 500 μM L-tryptophan): < 3.16 µM
IC50 (TDO [3]): 0.339 µM
IC50 (IDO [4]; SKOV3 cells, IDO induced by 500 ng/ml IFN-γ): 10.5 µM
IC50 (IDO [4]; [5]): 3.24 to 31.6 µM

Cc1cc(C2CCN(S(C)(=O)=O)CC2)c2cn[nH]c2c1 [Compound 30]
IC50 (TDO [1]): < 3.16 µM
IC50 (IDO [2]; 17 minutes, room temperature): < 3.16 µM
IC50 (TDO [3]; 500 μM L-tryptophan): < 3.16 µM
IC50 (IDO [4]; [5]): 3.24 to 31.6 µM

c1ccc(CNc2cccc3[nH]ncc23)cc1 [Compound 34]
IC50 (TDO [1]): 3.24 to 31.6 µM
IC50 (IDO [2]; 17 minutes, room temperature): > 100 µM
IC50 (TDO [3]; 500 μM L-tryptophan): 32.4 to 100 µM
IC50 (IDO [4]; [5]): 32.4 to 100 µM

CS(=O)(=O)NCCOc1cccc2[nH]ncc12 [Compound 35]
IC50 (TDO [1]): 3.24 to 31.6 µM
IC50 (IDO [2]; 17 minutes, room temperature): > 100 µM

From patent US10590086B2, “Pharmaceutical compound” (IOmet Pharma Ltd., priority 2014, dated 2020)
